Source: US4175081A, “5-Substituted thiadiazole ureas” (priority 1977, dated 1979)

Columns and labels:
Crabgrass (CG) [1] = assay: Pre-emergence herbicide test; format: in vivo, Digitaria sanquinalis; conditions: Digitaria sanguinalis, pre-emergence, 336 h, two weeks after treatment; for pest or weed control at 8966.8 g/ha: 8 lb/acre
In short: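 Crabgrass (Digitaria sanquinalis) was surface seeded in 3' plastic pots of potting soil, covered with screened soil, and watered by sub-irrigation in greenhouse trays. Pots were seeded one day before spraying in a hood with a moving belt and fixed nozzle. Plants stayed in the greenhouse on sub-irrigation, and pre-emergence control was rated visually two weeks after treatment.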

[2] = test system: Yellow foxtail grass (YF); assay: Pre-emergence herbicide test; format: in vivo, Setaria glauca; conditions: Setaria, 336 h, two weeks after treatment; for pest or weed control at 8966.8 g/ha: 8 lb/acre
Description: (§1) Yellow foxtail grass (YF)--Setaria glauca
(§2) All crop and weed species were planted individually in 3' plastic pots containing potting soil. Four seeds each of corn, cotton, and snapbeans were seeded to a depth equal to the diameter of the seed. All other species were surface seeded and sprinkled with screened soil in an amount sufficient to cover the seed. Immediately after planting, all pots were watered by sub-irrigation in greenhouse trays. Pots for the pre-emergence phase were seeded one day before treatment.
(§3) Compounds were tested at rates of application equivalent to 8 lbs. of actual compound per acre in a spray volume of 38 gallons per acre. Spray hood constants required to deliver the above volume are as follows:
(§4) Formulations for spray applications were prepared in 50 ml volumes with the following three components:
(§5) Formulations for the 4 lbs/acre rate were prepared by adjusting the amount of active ingredient accordingly.
(§6) Spray applications were made in a hood containing a removable belt and fixed spray nozzle. For passage through the spray hood, one pot of each specie (pre-emergence phase) was placed on the rear half of the flat. Treatments were removed to the greenhouse after spraying. Watering during the observation period was done only by sub-irrigation.
(§7) Two weeks after treatment, pre- and post-emergence injury or control was visually rated, and the results were as shown in the following tables. Pre-emergence data are provided in TABLE III and post-emergence data are provided in TABLE IV, for compounds having the formula illustrated in TABLE I. Correspondingly, pre-emergence and post-emergence data, respectively, are set forth in TABLES V AND VI, for compounds having the formula illustrated in TABLE II.

Johnson grass (JG) [3] = assay: Pre-emergence herbicide test; format: in vivo, Sorgum helepense; conditions: Sorghum halepense, 336 h, two weeks after treatment; for pest or weed control at 8966.8 g/ha: 8 lb/acre
In short: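 Visual injury or control rating two weeks post-treatment, after pre-emergence spray of 8 or 4 lbs active per acre (38 gal/acre) onto pots sown the previous day. Greenhouse watering by sub-irrigation only.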

Barnyard grass (BG) [4] = assay: Pre-emergence herbicide test; format: in vivo; conditions: Echinochloa crus-galli, 336 h, two weeks after treatment; for pest or weed control at 8966.8 g/ha: 8 lb/acre
In short: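 Greenhouse pre-emergence spray test: pots seeded one day before treatment received compound at rates of 8 or 4 lb/acre (38 gal/acre). Visual injury/control scores for Echinochloa crus-galli taken at two weeks, with watering by sub-irrigation only.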

Amaranth pigweed (PW) [5] = assay: Pre-emergence herbicide test; format: in vivo, Amaranthus retroflexus; conditions: 336 h, two weeks after treatment; for pest or weed control at 8966.8 g/ha: 8 lb/acre
In short: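 Visual injury or control ratings were made at two weeks on pre-emergence pots, sub-irrigated in the greenhouse. Seeds were sown a day before a hood spray delivering 8 lbs/acre (or 4 lbs/acre) of compound in 38 gallons per acre.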

Turnip (TP) [6] = assay: Pre-emergence herbicide test; format: in vivo, Brassica sp.; conditions: Brassica rapa, pre-emergence, 336 h, two weeks after treatment; for pest or weed control at 8966.8 g/ha: 8 lb/acre
In short: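 In this pre-emergence greenhouse test, turnip was seeded on the surface of potting soil in 3' plastic pots, lightly covered with screened soil, and watered from below. One day later the pots were sprayed in a belt-fed spray hood. Watering continued only by sub-irrigation, and percent control was visually scored two weeks after treatment.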

Cotton (CT) [7] = assay: Pre-emergence herbicide test; format: in vivo, Gossypium hirsutum var. DPL smooth leaf; conditions: Gossypium hirsutum, 336 h, two weeks after treatment; for pest or weed control at 8966.8 g/ha: 8 lb/acre
In short: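 Visual injury/control ratings were taken at two weeks post-spray. Pots seeded a day earlier received compound pre-emergence at 8 lbs/acre, or 4 lbs/acre, in a 38 gallon/acre spray volume, and were then held in the greenhouse, watered only from below.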

Corn (CN) [8] = assay: Pre-emergence herbicide test; format: in vivo; conditions: Zea mays, 336 h, two weeks after treatment; for pest or weed control at 8966.8 g/ha: 8 lb/acre
In short: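 Visual injury/control ratings were made 2 weeks post-spray on corn pots seeded (4 seeds, seed-diameter depth) the day before treatment. Application was a belt-hood spray of 38 gal/acre delivering 8 lbs active per acre, with a 4 lbs/acre rate also formulated. Watering was by sub-irrigation throughout.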

Bean (BN) [9] = assay: Pre-emergence herbicide test; format: in vivo, Phaseolus vulgaris var. Black Valentine; conditions: Phaseolus vulgaris, 336 h, two weeks after treatment; for pest or weed control at 8966.8 g/ha: 8 lb/acre
In short: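 Visual injury/control ratings were taken two weeks post-spray on sub-irrigated Phaseolus vulgaris var. Black Valentine. Pots were sown a day before treatment. Pre-emergence spray delivered 8 lbs actual compound per acre (or 4 lbs/acre) at 38 gallons per acre.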

Crabgrass (CG) [10] = assay: Post-emergence herbicide test; format: in vivo, Digitaria sanquinalis; conditions: Digitaria sanguinalis, post-emergence, 336 h, two weeks after treatment; for pest or weed control at 8966.8 g/ha: 8 lb/acre
In short: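 Crabgrass (Digitaria sanquinalis) was surface seeded individually in 3' plastic pots of potting soil, covered with screened soil, and watered by sub-irrigation in greenhouse trays. Planting was staggered so seedlings reached the target stage together. Post-emergence sprays were applied in a hood with a removable belt and fixed nozzle, and control was visually rated two weeks after treatment.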

[11] = test system: Yellow foxtail grass (YF); assay: Post-emergence herbicide test; format: in vivo, Setaria glauca; conditions: Setaria, 336 h, two weeks after treatment; for pest or weed control at 8966.8 g/ha: 8 lb/acre
Description: as §1, §2
Planting dates for the post-emergence phase were varied so that all seedlings would reach the desired stage of development simultaneously. The proper stage of seedling development for treatment in the post-emergence phase is as follows:
as §3, §4, §5, §6, §7

Johnson grass (JG) [12] = assay: Post-emergence herbicide test; format: in vivo, Sorgum helepense; conditions: Sorghum halepense, 336 h, two weeks after treatment; for pest or weed control at 8966.8 g/ha: 8 lb/acre
In short: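 Visual injury or control scores taken 2 weeks after a post-emergence spray of pot-grown plants. Application was 8 lbs/acre (or 4 lbs/acre) in 38 gal/acre. Plants were held in the greenhouse with sub-irrigation only.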

Barnyard grass (BG) [13] = assay: Post-emergence herbicide test; format: in vivo; conditions: Echinochloa crus-galli, 336 h, two weeks after treatment; for pest or weed control at 8966.8 g/ha: 8 lb/acre
In short: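 Greenhouse pot-grown barnyard grass seedlings sprayed post-emergence at 8 lbs active compound per acre (some at 4 lbs/acre) in 38 gallons per acre, then sub-irrigated. Injury or control rated visually two weeks after treatment.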

Amaranth pigweed (PW) [14] = assay: Post-emergence herbicide test; format: in vivo, Amaranthus retroflexus; conditions: 336 h, two weeks after treatment; for pest or weed control at 8966.8 g/ha: 8 lb/acre
In short: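 Visual injury or control ratings were made two weeks after spraying, with greenhouse watering by sub-irrigation only. Treatment was post-emergence, when pigweed seedlings had 1 or 2 true leaves, at 8 lbs active compound per acre (4 lbs/acre formulations also made) in a 38 gallons-per-acre spray volume.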

Turnip (TP) [15] = assay: Post-emergence herbicide test; format: in vivo, Brassica sp.; conditions: Brassica rapa, post-emergence, 336 h, two weeks after treatment; for pest or weed control at 8966.8 g/ha: 8 lb/acre
In short: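 A greenhouse post-emergence herbicide test on turnip. Seeds were sown on the surface of potting soil in 3' plastic pots, lightly covered with screened soil and watered from below. Planting was timed so seedlings had 1 or 2 true leaves above the cotyledons at spraying, done in a hood with a fixed nozzle. Control or injury was scored by eye after two weeks.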

Cotton (CT) [16] = assay: Post-emergence herbicide test; format: in vivo, Gossypium hirsutum var. DPL smooth leaf; conditions: Gossypium hirsutum, post-emergence, 336 h, two weeks after treatment; for pest or weed control at 8966.8 g/ha: 8 lb/acre
In short: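 This greenhouse post-emergence test measured how well spray treatments controlled cotton. Seedlings of Gossypium hirsutum var. DPL smooth leaf, with expanded cotyledons and a first true leaf 1' in length, were sprayed with 50 ml formulations in a belt-fed spray hood. They were then returned to the greenhouse and watered only by sub-irrigation. Injury was scored visually as % control after two weeks.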

Corn (CN) [17] = assay: Post-emergence herbicide test; format: in vivo; conditions: Zea mays, 336 h, two weeks after treatment; for pest or weed control at 8966.8 g/ha: 8 lb/acre
In short: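 Greenhouse seedlings grown in potting soil and sprayed post-emergence at 8 lbs compound/acre (formulations also made for 4 lbs/acre) in 38 gallons/acre spray volume. Watering by sub-irrigation only. Injury or control rated visually two weeks after treatment.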

Bean (BN) [18] = assay: Post-emergence herbicide test; format: in vivo, Phaseolus vulgaris var. Black Valentine; conditions: Phaseolus vulgaris, post-emergence, 336 h, two weeks after treatment; for pest or weed control at 8966.8 g/ha: 8 lb/acre
In short: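 Bean seedlings (Phaseolus vulgaris var. Black Valentine) were grown in potting soil in 3' pots until the primary leaves expanded. They were then sprayed under a hood with a removable belt and fixed nozzle, using 50 ml formulations. Afterward they were returned to the greenhouse and watered only by sub-irrigation. Percent control was judged visually two weeks after treatment.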

SMILES | pest or weed control at 8966.8 g/ha (Crabgrass (CG) [1]) [%] | pest or weed control at 8966.8 g/ha [2] [%] | pest or weed control at 8966.8 g/ha (Johnson grass (JG) [3]) [%] | pest or weed control at 8966.8 g/ha (Barnyard grass (BG) [4]) [%] | pest or weed control at 8966.8 g/ha (Amaranth pigweed (PW) [5]) [%] | pest or weed control at 8966.8 g/ha (Turnip (TP) [6]) [%] | pest or weed control at 8966.8 g/ha (Cotton (CT) [7]) [%] | pest or weed control at 8966.8 g/ha (Corn (CN) [8]) [%] | pest or weed control at 8966.8 g/ha (Bean (BN) [9]) [%] | pest or weed control at 8966.8 g/ha (Crabgrass (CG) [10]) [%] | pest or weed control at 8966.8 g/ha [11] [%] | pest or weed control at 8966.8 g/ha (Johnson grass (JG) [12]) [%] | pest or weed control at 8966.8 g/ha (Barnyard grass (BG) [13]) [%] | pest or weed control at 8966.8 g/ha (Amaranth pigweed (PW) [14]) [%] | pest or weed control at 8966.8 g/ha (Turnip (TP) [15]) [%] | pest or weed control at 8966.8 g/ha (Cotton (CT) [16]) [%] | pest or weed control at 8966.8 g/ha (Corn (CN) [17]) [%] | pest or weed control at 8966.8 g/ha (Bean (BN) [18]) [%] | further results
CN(C)C(=O)N(C)c1nnc(C(F)(F)F)s1 [Example 4, 1,1,3-Trimethyl-3-[5-Trifluoromethyl-2-(1,3,4-Thiadiazolyl)] Urea] |  |  |  |  |  |  |  |  |  |  |  |  |  |  |  |  |  |  | pest or weed control at 4483.4 g/ha (Crabgrass (CG) [1]; 4 lb/acre): 100%; pest or weed control at 4483.4 g/ha ([2]; 4 lb/acre): 80%; pest or weed control at 4483.4 g/ha (Johnson grass (JG) [3]; 4 lb/acre): 40%; pest or weed control at 4483.4 g/ha (Barnyard grass (BG) [4]; 4 lb/acre): 90%; pest or weed control at 4483.4 g/ha (Amaranth pigweed (PW) [5]; 4 lb/acre): 100%; pest or weed control at 4483.4 g/ha (Turnip (TP) [6]; 4 lb/acre): 100%; pest or weed control at 4483.4 g/ha (Cotton (CT) [7]; 4 lb/acre): 70%; pest or weed control at 4483.4 g/ha (Corn (CN) [8]; 4 lb/acre): 70%; pest or weed control at 4483.4 g/ha (Bean (BN) [9]; 4 lb/acre): 90%; pest or weed control at 4483.4 g/ha (Crabgrass (CG) [10]; 4 lb/acre): 80%; pest or weed control at 4483.4 g/ha ([11]; 4 lb/acre): 90%; pest or weed control at 4483.4 g/ha (Johnson grass (JG) [12]; 4 lb/acre): 40%; pest or weed control at 4483.4 g/ha (Barnyard grass (BG) [13]; 4 lb/acre): 60%; pest or weed control at 4483.4 g/ha (Amaranth pigweed (PW) [14]; 4 lb/acre): 100%; pest or weed control at 4483.4 g/ha (Turnip (TP) [15]; 4 lb/acre): 100%; pest or weed control at 4483.4 g/ha (Cotton (CT) [16]; 4 lb/acre): 100%; pest or weed control at 4483.4 g/ha (Corn (CN) [17]; 4 lb/acre): 100%; pest or weed control at 4483.4 g/ha (Bean (BN) [18]; 4 lb/acre): 100%
CNC(=O)Nc1nnc(OC)s1 [Example 24] | 10 | 10 | 10 | 10 | 60 | 10 | 10 | 30 | 60 | 30 | 20 | 20 | 20 | 90 | 60 | 70 | 20 |  | 
CSc1nnc(NC(=O)NC(C)C)s1 [Example 30] | 20 | 10 | 10 | 10 | 10 |  | 10 | 10 | 50 | 20 | 20 | 20 | 20 | 50 | 40 | 70 | 20 | 100 | 
CNC(=O)Nc1nnc(-c2ccccc2)s1 [Example 34] | 10 | 20 | 20 | 10 |  | 20 | 40 | 10 | 80 | 10 | 30 | 30 | 10 | 20 | 40 | 50 | 50 | 60 | 
CNC(=O)Nc1nnc(-c2ccc(Cl)cc2)s1 [Example 71] | 0 | 0 | 0 | 20 |  | 0 | 90 | 0 | 50 | 20 | 30 | 20 | 20 | 20 | 20 | 0 | 0 | 50 | 
